Results taken from the NIST ThermoML archive (doi:10.1021/je900259b).

Tests used:
[1] = refractive index (Na D-line) (dimensionless); details: 298.15 K; 101.33 kPa; Liquid; Standard Abbe refractometry
[2] = Liquid; for mass density: 298.15 K, 101.33 kPa, Vibrating tube method; for Normal boiling temperature: Ebulliometric method (Recirculating still); for vapor or sublimation pressure: Closed cell (Static) method

C1=CCCCC1 [cyclohexene]
Details	Normal boiling temperature [°C]	mass density [kg/m3]	refractive index
[1]	–	–	1.4444
[2]	82.82	805.69	–

C1CCCCC1 [cyclohexane]
Details	Normal boiling temperature [°C]	mass density [kg/m3]	refractive index
[1]	–	–	1.4238
[2]	80.58	773.82	–

COCCO [2-methoxyethan-1-ol]
Details	mass density [kg/m3]	refractive index
[1]	–	1.4006
[2]	960.02	–

[2]
Details	vapor or sublimation pressure [kPa]
345.94 K	14.98
349.54 K	17.51
352.72 K	20.02
355.49 K	22.45
358.12 K	25.02
360.51 K	27.53
362.72 K	29.98
364.76 K	32.52
366.62 K	34.91
368.51 K	37.49
370.14 K	39.92
371.85 K	42.51
373.35 K	44.91
374.89 K	47.49
376.28 K	49.96
377.65 K	52.42
378.98 K	54.96
380.23 K	57.48
381.44 K	59.94
382.64 K	62.46
383.74 K	64.87
384.89 K	67.49
385.95 K	69.92
387.02 K	72.45
388.02 K	74.99
388.98 K	77.41
389.94 K	79.86
390.92 K	82.45
391.85 K	84.96
392.74 K	87.49
393.61 K	89.96
394.47 K	92.48
395.32 K	94.94
396.12 K	97.48
396.96 K	100.03
397.37 K	101.3
